Test results as given in patent publication US11945813B2, “5-substituted 4-amino-1H-benzo[c][1,2,6]thiadiazine 2,2-dioxides and formulations and uses thereof” (Firmenich Incorporated, priority 2018, dated 2024).

Target: T1, T1R2/T1R3 taste receptor (Homo sapiens, UniProt Q8TE23)
T1 sequence (Q8TE23 20-839): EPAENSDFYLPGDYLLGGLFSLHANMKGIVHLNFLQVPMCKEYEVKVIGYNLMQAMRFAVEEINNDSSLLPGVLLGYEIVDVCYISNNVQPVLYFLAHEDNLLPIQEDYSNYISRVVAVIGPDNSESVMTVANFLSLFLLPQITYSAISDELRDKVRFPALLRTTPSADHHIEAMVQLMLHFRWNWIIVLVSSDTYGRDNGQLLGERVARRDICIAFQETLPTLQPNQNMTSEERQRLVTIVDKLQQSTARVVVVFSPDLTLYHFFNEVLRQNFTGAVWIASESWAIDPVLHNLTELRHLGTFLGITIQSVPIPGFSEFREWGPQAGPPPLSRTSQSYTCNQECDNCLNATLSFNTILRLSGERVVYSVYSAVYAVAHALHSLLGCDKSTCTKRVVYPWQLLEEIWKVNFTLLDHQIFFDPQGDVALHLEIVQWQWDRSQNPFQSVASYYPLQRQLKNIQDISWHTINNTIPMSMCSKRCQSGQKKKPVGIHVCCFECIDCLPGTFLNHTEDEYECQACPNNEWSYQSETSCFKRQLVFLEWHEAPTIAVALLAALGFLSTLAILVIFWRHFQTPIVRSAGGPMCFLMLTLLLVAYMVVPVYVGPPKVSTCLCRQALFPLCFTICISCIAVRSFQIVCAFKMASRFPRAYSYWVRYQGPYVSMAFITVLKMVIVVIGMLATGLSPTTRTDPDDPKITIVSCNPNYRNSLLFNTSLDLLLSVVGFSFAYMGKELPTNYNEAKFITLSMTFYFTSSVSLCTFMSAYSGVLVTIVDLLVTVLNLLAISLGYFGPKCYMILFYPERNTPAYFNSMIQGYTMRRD
T1 sequence (Q7RTX0 21-852 partner): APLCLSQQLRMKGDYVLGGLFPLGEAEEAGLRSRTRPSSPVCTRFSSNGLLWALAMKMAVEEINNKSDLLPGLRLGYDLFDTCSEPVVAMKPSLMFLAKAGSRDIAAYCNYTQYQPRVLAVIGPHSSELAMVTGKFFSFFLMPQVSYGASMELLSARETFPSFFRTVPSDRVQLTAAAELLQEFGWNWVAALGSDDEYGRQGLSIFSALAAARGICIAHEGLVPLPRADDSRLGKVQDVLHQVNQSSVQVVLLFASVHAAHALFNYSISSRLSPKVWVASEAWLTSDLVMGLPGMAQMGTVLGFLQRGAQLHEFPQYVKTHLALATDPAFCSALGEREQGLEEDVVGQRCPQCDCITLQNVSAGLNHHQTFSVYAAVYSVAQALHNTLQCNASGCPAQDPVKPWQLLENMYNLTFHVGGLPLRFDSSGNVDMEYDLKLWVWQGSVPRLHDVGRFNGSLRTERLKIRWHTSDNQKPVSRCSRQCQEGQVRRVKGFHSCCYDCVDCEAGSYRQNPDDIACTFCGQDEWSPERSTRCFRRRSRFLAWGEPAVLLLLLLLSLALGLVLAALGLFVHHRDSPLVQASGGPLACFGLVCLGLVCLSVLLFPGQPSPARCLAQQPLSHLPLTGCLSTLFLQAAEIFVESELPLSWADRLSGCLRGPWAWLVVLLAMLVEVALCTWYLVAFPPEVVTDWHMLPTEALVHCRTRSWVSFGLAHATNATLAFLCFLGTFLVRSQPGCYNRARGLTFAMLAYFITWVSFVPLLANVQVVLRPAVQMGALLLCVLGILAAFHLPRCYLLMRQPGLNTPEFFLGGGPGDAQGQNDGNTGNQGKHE
Assay: Receptor-based assay: sweetener EC50 alone and with test compound (enhancement ratio)
Assay type: cell-based
Details: for Fructose Enhancement EC50 Ratio: sweetener fructose; for Sucralose Enhancement EC50 Ratio: sweetener sucralose; for Sucrose Enhancement EC50 Ratio: sweetener sucrose
In short: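 Sucrose, sucralose or fructose EC50 measured on human T1R2/T1R3, alone and with 3, 10 or 50 μM test compound. Enhancement is the EC50 ratio without/with compound, binned A >20, B 10-20, C >1 to <10.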

Row | SMILES | Fructose Enhancement EC50 Ratio (10 μM test compound) | Fructose Enhancement EC50 Ratio (50 μM test compound) | Sucralose Enhancement EC50 Ratio (10 μM test compound) | Sucralose Enhancement EC50 Ratio (50 μM test compound) | Sucrose Enhancement EC50 Ratio (3 μM test compound) | Sucrose Enhancement EC50 Ratio (10 μM test compound) | Sucrose Enhancement EC50 Ratio (50 μM test compound)
1 | CCCNc1nccc(NC(C)(C)COc2cccc3c2C(N)=NS(=O)(=O)N3)n1 [Compound 208] | C (A “C” value indicates an enhancement ratio greater than 1 and less than 10) | C (A “C” value indicates an enhancement ratio greater than 1 and less than 10) | A (An “A” value indicates an enhancement ratio of greater than 20) | A (An “A” value indicates an enhancement ratio of greater than 20) | C (A “C” value indicates an enhancement ratio greater than 1 and less than 10) | C (A “C” value indicates an enhancement ratio greater than 1 and less than 10) | C (A “C” value indicates an enhancement ratio greater than 1 and less than 10)
2 | CCCNC(=O)c1ccc(N2CCC[C@H](COc3cccc4c3C(N)=NS(=O)(=O)N4)C2)nc1 [Compound 502] | C (A “C” value indicates an enhancement ratio greater than 1 and less than 10) | C (A “C” value indicates an enhancement ratio greater than 1 and less than 10) | A (An “A” value indicates an enhancement ratio of greater than 20) | A (An “A” value indicates an enhancement ratio of greater than 20) | C (A “C” value indicates an enhancement ratio greater than 1 and less than 10) | C (A “C” value indicates an enhancement ratio greater than 1 and less than 10) | C (A “C” value indicates an enhancement ratio greater than 1 and less than 10)
3 | NC1=NS(=O)(=O)Nc2cccc(OC[C@H]3CCCN(c4cc(C(=O)NC5CC5)ccn4)C3)c21 [Compound 607] | C (A “C” value indicates an enhancement ratio greater than 1 and less than 10) |  |  |  | A (An “A” value indicates an enhancement ratio of greater than 20) | B (A “B” value indicates an enhancement ratio from 10 to 20) | C (A “C” value indicates an enhancement ratio greater than 1 and less than 10)
4 | COCCNC(=O)c1ccnc(N2CCC[C@H](COc3cccc4c3C(N)=NS(=O)(=O)N4)C2)c1 [Compound 604] |  | C (A “C” value indicates an enhancement ratio greater than 1 and less than 10) | A (An “A” value indicates an enhancement ratio of greater than 20) |  |  |  | B (A “B” value indicates an enhancement ratio from 10 to 20)
5 | NC1=NS(=O)(=O)Nc2cccc(OC[C@H]3CCCN(c4cccc(C(=O)NC5CCCC5)n4)C3)c21 [Compound 408] |  | C (A “C” value indicates an enhancement ratio greater than 1 and less than 10) | A (An “A” value indicates an enhancement ratio of greater than 20) | A (An “A” value indicates an enhancement ratio of greater than 20) | C (A “C” value indicates an enhancement ratio greater than 1 and less than 10) | B (A “B” value indicates an enhancement ratio from 10 to 20) | B (A “B” value indicates an enhancement ratio from 10 to 20)
6 | NC1=NS(=O)(=O)Nc2cccc(OC[C@H]3CCCN(c4ccc(C(=O)NCC5CCCCC5)cn4)C3)c21 [Compound 517] |  |  | C (A “C” value indicates an enhancement ratio greater than 1 and less than 10) | B (A “B” value indicates an enhancement ratio from 10 to 20) | C (A “C” value indicates an enhancement ratio greater than 1 and less than 10) | C (A “C” value indicates an enhancement ratio greater than 1 and less than 10) | C (A “C” value indicates an enhancement ratio greater than 1 and less than 10)
7 | NC1=NS(=O)(=O)Nc2cccc(OC[C@H]3CCCN(c4cc(C(=O)NC5CCCC5)ccn4)C3)c21 [Compound 608] | C (A “C” value indicates an enhancement ratio greater than 1 and less than 10) | C (A “C” value indicates an enhancement ratio greater than 1 and less than 10) | A (An “A” value indicates an enhancement ratio of greater than 20) | A (An “A” value indicates an enhancement ratio of greater than 20) | C (A “C” value indicates an enhancement ratio greater than 1 and less than 10) | C (A “C” value indicates an enhancement ratio greater than 1 and less than 10) | B (A “B” value indicates an enhancement ratio from 10 to 20)
8 | NC1=NS(=O)(=O)Nc2cccc(OC[C@H]3CCCN(c4cc(C(=O)N5CCOCC5)ccn4)C3)c21 [Compound 614] |  | C (A “C” value indicates an enhancement ratio greater than 1 and less than 10) | A (An “A” value indicates an enhancement ratio of greater than 20) | A (An “A” value indicates an enhancement ratio of greater than 20) | C (A “C” value indicates an enhancement ratio greater than 1 and less than 10) |  | A (An “A” value indicates an enhancement ratio of greater than 20)
9 | CNC(=O)c1ccnc(N2CCC[C@H](COc3cccc4c3C(N)=NS(=O)(=O)N4)C2)c1 [Compound 600] |  |  | A (An “A” value indicates an enhancement ratio of greater than 20) | A (An “A” value indicates an enhancement ratio of greater than 20) | C (A “C” value indicates an enhancement ratio greater than 1 and less than 10) |  | B (A “B” value indicates an enhancement ratio from 10 to 20)
10 | Cc1cnc(NC(C)(C)COc2cccc3c2C(N)=NS(=O)(=O)N3)nc1 [Compound 100, 4-amino-5-(2-methyl-2-((5-methylpyrimidin-2-yl)amino)propoxy)-1H-benzo[c][1,2,6]thiadiazine 2,2-dioxide] |  |  | A (An “A” value indicates an enhancement ratio of greater than 20) | A (An “A” value indicates an enhancement ratio of greater than 20) | C (A “C” value indicates an enhancement ratio greater than 1 and less than 10) | C (A “C” value indicates an enhancement ratio greater than 1 and less than 10) | C (A “C” value indicates an enhancement ratio greater than 1 and less than 10)
11 | NC1=NS(=O)(=O)Nc2cccc(OC[C@H]3CCCN(c4ccc(C(=O)NC5CCCCC5)cn4)C3)c21 [Compound 509] |  | C (A “C” value indicates an enhancement ratio greater than 1 and less than 10) | B (A “B” value indicates an enhancement ratio from 10 to 20) | A (An “A” value indicates an enhancement ratio of greater than 20) | C (A “C” value indicates an enhancement ratio greater than 1 and less than 10) | C (A “C” value indicates an enhancement ratio greater than 1 and less than 10) | C (A “C” value indicates an enhancement ratio greater than 1 and less than 10)
